Results reported in ChEMBL document CHEMBL4043254, “Discovery of potential antiausterity agents from the Japanese cypress Chamaecyparis obtusa” (2017).
Calls of active or inactive are those of the source. The rule behind the calls is not given here.

What was measured:
[1] = system: MIA PaCa-2; test: Antiausteritic activity against human MIAPaCa2 cells in nutrient-deprived medium measured after 24 hrs by WST8 assay; assay type: functional
[2] = system: CAPAN-1; test: Antiausteritic activity against human Capan1 cells in nutrient-deprived medium measured after 24 hrs by WST8 assay; assay type: functional
[3] = Antiausteritic activity against human KLM1 cells in nutrient-deprived medium measured after 24 hrs by WST8 assay; assay type: functional
[4] = system: PSN1; test: Antiausteritic activity against human PSN1 cells in nutrient-deprived medium measured after 24 hrs by WST8 assay; assay type: functional
[5] = system: PANC-1; test: Antiausteritic activity against human PANC1 cells in nutrient-deprived medium measured after 24 hrs by WST8 assay; assay type: functional
[6] = system: PANC-1; test: Antiausteritic activity against human PANC1 cells assessed as cell death at 50 uM under nutrient-deprived medium measured at 5 mins interval for 8 hrs by live cell imaging analysis; assay type: functional, cell-based
[7] = system: PANC-1; test: Induction of morphological changes in human PANC1 cells assessed as nuclear fragmentation at 25 to 50 uM after 24 hrs by Hoechst 33342/propidium iodide staining based inverted microscopic analysis; assay type: functional, cell-based
[8] = system: PANC-1; test: Antiausteritic activity against human PANC1 cells assessed as reduction in cell migration at 50 uM under nutrient-deprived medium measured at 5 mins interval for 30 mins by live cell imaging analysis; assay type: functional, cell-based
[9] = system: PANC-1; test: Induction of autophagy in human PANC1 cells assessed as increase in LC3-2 expression after 3 hrs under nutrient deprived medium by Western blot analysis; assay type: functional, cell-based
[10] = system: PANC-1; test: Antiausteritic activity against human PANC1 cells assessed as normalized cell index by measuring cell growth inhibition at 25 uM under nutrient-deprived medium measured at 15 secs interval for 24 hrs by real time cell analysis; assay type: functional, cell-based
[11] = system: PANC-1; test: Antiausteritic activity against human PANC1 cells assessed as decrease in cell index under nutrient-deprived medium measured at 15 secs interval for 24 hrs by real time cell analysis; assay type: functional, cell-based
[12] = system: PANC-1; test: Induction of morphological changes in human PANC1 cells assessed as increase in dead cells after 24 hrs by Hoechst 33342/propidium iodide staining based inverted microscopic analysis; assay type: functional, cell-based
[13] = system: PANC-1; test: Induction of morphological changes in human PANC1 cells assessed as increase in dead cells after 24 hrs by ethidium bromide/acridine orange staining based inverted microscopic analysis; assay type: functional, cell-based
[14] = system: PANC-1; test: Induction of autophagy in human PANC1 cells assessed as increase in LC3-1 expression after 3 hrs under nutrient deprived medium by Western blot analysis; assay type: functional, cell-based
[15] = target: RAC-alpha serine/threonine-protein kinase (Homo sapiens) (UniProt P31749); test: Inhibition of AKT phosphorylation at Ser473 residues in human PANC1 cells at 50 uM measured within 3 hrs under nutrient deprived condition by Western blot analysis; assay type: cell-based
Sequence of RAC-alpha serine/threonine-protein kinase (Homo sapiens) (P31749 whole entry): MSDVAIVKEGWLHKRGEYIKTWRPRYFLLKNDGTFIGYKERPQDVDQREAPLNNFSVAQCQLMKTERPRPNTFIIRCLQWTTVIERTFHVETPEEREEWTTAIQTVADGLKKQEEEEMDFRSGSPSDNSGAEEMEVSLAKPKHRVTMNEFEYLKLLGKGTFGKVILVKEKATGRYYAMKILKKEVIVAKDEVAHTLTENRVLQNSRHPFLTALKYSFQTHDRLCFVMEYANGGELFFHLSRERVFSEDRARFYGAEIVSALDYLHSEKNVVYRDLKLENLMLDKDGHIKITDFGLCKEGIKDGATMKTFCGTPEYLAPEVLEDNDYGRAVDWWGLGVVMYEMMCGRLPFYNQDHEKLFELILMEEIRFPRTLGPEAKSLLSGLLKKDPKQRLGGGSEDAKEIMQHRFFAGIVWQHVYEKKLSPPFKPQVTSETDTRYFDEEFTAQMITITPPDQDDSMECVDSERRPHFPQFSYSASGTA

[16] = system: PANC-1; test: Antiausteritic activity against human PANC1 cells assessed as alterations in cell morphology at 50 uM under nutrient-deprived medium measured at 5 mins interval for 2 hrs by live cell imaging analysis; assay type: functional, cell-based
[17] = target: RAC-alpha serine/threonine-protein kinase (Homo sapiens) (UniProt P31749); test: Inhibition of AKT in human PANC1 cells assessed as reduction in mTOR phosphorylation at Ser2448 residue at 50 uM measured after 3 hrs under nutrient deprived condition by Western blot analysis; assay type: cell-based
[18] = target: RAC-alpha serine/threonine-protein kinase (Homo sapiens) (UniProt P31749); test: Inhibition of AKT in human PANC1 cells assessed as reduction in mTOR phosphorylation at Ser2448 residue measured after 3 hrs under nutrient deprived condition by Western blot analysis; assay type: cell-based
[19] = system: PANC-1; test: Antiausteritic activity against human PANC1 cells assessed as decrease in cell index by measuring cell death at 50 uM under nutrient-deprived medium measured at 15 secs interval for 4 hrs by real time cell analysis; assay type: functional, cell-based

CC(C)[C@@H]1CC[C@@](C)(O)[C@@H]2CCC(CO)=C[C@H]21 gave a PC50 [1] greater than 100 µM, a PC50 [2] greater than 100 µM and a PC50 [3] of 95.3 µM. The PC50 [4] was greater than 100 µM and the PC50 [5] was greater than 100 µM.
With CC1=C[C@@H]2[C@@H](CC1)[C@@](C)(O)CC[C@H]2C(C)C [T-CADINOL] the Activity [6] was “Active”, the Activity [7] was “Active” and the Activity [8] was “Active”. For the same molecule, the Activity [9] was “Dose-dependent effect”, the Activity [10] was “Active” and the Activity [11] was “Dose-dependent effect”. The Activity [12] was “Dose-dependent effect”, the Activity [13] was “Dose-dependent effect” and the Activity [14] was “Dose-dependent effect”. For the same molecule, the inhibition [15] was “Active”, the Activity [16] was “Active” and the PC50 [3] was 45.1 µM. For the same molecule, the inhibition [17] was 100%, the inhibition [18] was “Dose-dependent effect” and the Activity [19] was “Active”.
With O=C1OC[C@H](Cc2ccc3c(c2)OCO3)[C@H]1Cc1ccc2c(c1)OCO2 [HINOKININ] the PC50 [1] was 21.3 µM, the PC50 [2] was 50.1 µM and the PC50 [3] was 92.5 µM. The PC50 [4] was 60.1 µM and the PC50 [5] was 64.1 µM.
COc1cc(C[C@H]2C(=O)OC[C@@H]2Cc2ccc(OC)c(OC)c2)ccc1O [ARCTIGENIN] gave a PC50 [1] of 1.9 µM, a PC50 [2] of 1.2 µM and a PC50 [3] of 0.8 µM. For the same molecule, the PC50 [4] was 0.7 µM and the PC50 [5] was 0.5 µM.
CC(=O)OCC1=C[C@@H]2[C@@H](CC1)[C@@](C)(O)CC[C@H]2C(C)C gave a PC50 [1] of 35.7 µM, a PC50 [2] greater than 100 µM and a PC50 [3] of 69 µM. The PC50 [4] was greater than 100 µM.
Work on CC1=C[C@@H]2[C@@H](CC1)[C@](C)(O)CC[C@H]2C(C)C yielded a PC50 [1] of 49.1 µM, a PC50 [2] greater than 100 µM and a PC50 [3] of 69.7 µM. It also gave a PC50 [4] greater than 100 µM and a PC50 [5] of 46 µM.
With CC1=C[C@@H]2[C@@H](CC1=O)[C@@](C)(O)CC[C@H]2C(C)C the PC50 [1] was greater than 100 µM, the PC50 [2] was greater than 100 µM and the PC50 [3] was greater than 100 µM. The PC50 [4] was greater than 100 µM and the PC50 [5] was greater than 100 µM.
CC(C)[C@@H]1CC[C@](C)(O)[C@@H]2CCC(CO)=C[C@H]21 showed a PC50 [1] of 29.8 µM, a PC50 [2] greater than 100 µM and a PC50 [3] of 77.2 µM. It also gave a PC50 [4] of 50.6 µM and a PC50 [5] of 82.1 µM.
C/C1=C/C(=O)CC[C@@](C)(O)CC[C@@H](C(C)C)C1=O gave a PC50 [1] greater than 100 µM, a PC50 [2] greater than 100 µM and a PC50 [3] of 98.1 µM. It also gave a PC50 [4] of 67.7 µM and a PC50 [5] greater than 100 µM.
